Laboratory results: publication PMC7913925, “Design and Evaluation of a Polypeptide That Mimics the Integrin Binding Site for EDA Fibronectin to Block Profibrotic Cell Activity” (International Journal of Molecular Sciences, 2021)
Bridges are numbered along the chain shown (N, C = ends). Where no end group is shown, it is not given here.

Experiments:
[1] = system: Ltbp1 mRNA in NIH/3T3 fibroblasts; test: qRT-PCR Ltbp1 mRNA; type: cell-based, mouse; details: 48 h, TGF-β1 10 ng/mL
Protocol: (§1) Reverse transcription (RT) and real-time quantitative PCR (qRT-PCR) were used to assess ACTA2/Acta2, Col1a1, Col3a1, Fn1, Eda-Fn1, Mmp9, Tgfb1, Ltbp1, Hic5, and Mrtfa mRNA expressions. Custom PCR primers were designed in-house (Table 2) and then synthesized by BGI (Beijing, China). Cells were grown in 6-well culture plates and washed with phosphate buffered saline (PBS) before lysis with TRIzon Reagent (CWBio, Beijing, China) and total RNA purification according to the manufacturer’s protocol. Reverse transcription was carried using the TransScript First-Strand cDNA Synthesis SuperMix kit according to the manufacturer’s protocol (TransGen, Beijing, China), using the random primer method for the initiation of cDNA synthesis. Nuclease-free H2O replaced the RNA sample to serve as a negative control for the reverse transcription reaction. For qRT-PCR, 10 µL 2× TransStart Top Green qPCR SuperMix was added to each well of a 96-well PCR plate containing 0.4 µL forward primer, 0.4 µL reverse primer, […], and nuclease-free water to a total volume of 20 µL. The qRT-PCR reaction was completed using a CFX96 Real-Time PCR Detection System (Bio-Rad Laboratories, Hercules, CA, USA). Amplification used the following parameters: 94 °C for 30 s, followed by 40 cycles of 94 °C for 5 s, 55 °C for 15 s, 72 °C for 10 s, and then a dissociation stage (melt-curve). […]

[2] = system: NIH/3T3 fibroblasts, collagen gel contraction; test: Collagen gel contraction assay; type: cell-based, mouse; details: TGF-β1 10 ng/mL + AF38Pep 10 µg/mL vs TGF-β1 alone
Protocol: Approximately 2 × 10^4/mL NIH/3T3 fibroblasts were added to a solution containing 3 mg/mL rat tail collagen type I (BD Biosciences, San Diego, CA, USA), 260 mM NaHCO3, 200 mM HEPES and 50 mM NaOH. To each well of a 24-well cell culture plate, 500 µL of collagen-cell solution was added and allowed to polymerize at 37 °C for 1 h. The gels were carefully detached from the well walls before resuspension of gels in 1% FBS-DMEM and maintained at 37 °C, in a 5% CO2 atmosphere for 24 h. The DMEM medium was removed and replaced with serum-free DMEM medium with or without 10 ng/mL TGF-β1 and/or 10 µg/mL AF38Pep. Gels were photographed and measured at days 0, 1, 2, 4, and 6 after treatment. The average contraction values were obtained using ImageJ v1.37c (NIH, Bethesda, MD, USA) and are expressed as a percentage of contraction versus the initial gel diameter at 0 days.

EDA-FN–ITGA4 interaction = test: Co-IP of EDA-FN with ITGA4; type: cell-based; details: 48 h, Co-IP with anti-ITGA4
Protocol: (§2) Total protein was extracted from cells in RIPA lysis buffer containing 1% protease inhibitor cocktail, 1% phenylmethylsulfonyl fluoride, and 1% sodium orthovanadate (Santa Cruz Biotechnology, Santa Cruz, CA, USA). Protein was quantified by Micro BCA Protein Assay Kit (Thermo Fisher Scientific) before 7.5% SDS-PAGE and transfer to nitrocellulose. Membranes were blocked with 5% bovine serum albumin (BSA; Sigma-Aldrich)/0.5% Tween-20 (Sigma-Aldrich)/PBS for 1 h, RT, followed by incubation with primary antibodies diluted in 1% BSA/0.1% Tween-20/PBS, overnight at 4 °C. Primary antibodies were: anti-phosphoY204/Y187 ERK1/2 (1:1000); anti-ERK1/2 (1:1000); anti-phosphoY861 FAK (1:1000); anti-FAK (1:2000). Immunoblotting for anti-GAPDH (1:2500) was used as a protein loading control. Following wash steps, membranes were incubated in goat anti-rabbit IgG H&L secondary antibody (horseradish peroxidase, HRP conjugate, […]) (Abcam; 1:5000 dilution, 1% BSA/0.1% Tween-20/PBS). Detection was performed using Immobilon reagent (Merck Millipore, Burlington, MA, USA) and imaged using a Tanon 5500 Chemiluminescent Imaging System (Tanon, Shanghai, China).
(§3) A volume of 25 µg total protein from cell lysate in nondenaturing lysis buffer containing protease inhibitors was immunoprecipitated (IP) using anti-ITGA4 antibodies linked to protein A/G sepharose beads (Abcam). […]

[3] = system: mouse NIH/3T3 dermal fibroblast cells, α-SMA mRNA; test: α-SMA mRNA expression (qRT-PCR) in TGF-β1-treated NIH/3T3; type: cell-based
Protocol: HFL1 cells were cultured in Kaighn’s modified Ham’s F-12 (F-12K) medium (Sigma-Aldrich) containing NaHCO3 and HEPES buffered to pH 7. Cells were grown to confluence in T75 culture flasks in the presence of 10% fetal bovine serum (FBS; Gibco, Thermo Fisher Scientific, Waltham, MA, USA). HFL1 cells were subcultured using 0.05% trypsin at a ratio of 1:3. NIH/3T3 cells were cultured in Dulbecco’s Modified Eagle Medium (DMEM; HyClone, Thermo Fisher Scientific) containing 100 U/mL penicillin and 100 μg/mL streptomycin. Cells were grown to confluence in T75 culture flasks in the presence of 10% FBS. NIH/3T3 cells were subcultured using 0.05% trypsin/EDTA at a ratio of 1:3. All cells were maintained at 37 °C and 5% CO2, and growth medium was replenished every 3 days until experimentation. Cells were growth-arrested in serum-free medium for 48 h before experiments, and all experiments were performed under serum-free conditions using cells between passages 3 and 8.
as §1, with “µL.” for “µL. The qRT-PCR reaction was completed using a CFX96 Real-Time PCR Detection System (Bio-Rad Laboratories, Hercules, CA, USA). Amplification used the following parameters: 94 °C for 30 s, followed by 40 cycles of 94 °C for 5 s, 55 °C for 15 s, 72 °C for 10 s, and then a dissociation stage (melt-curve).”

[4] = system: Hic5 mRNA in NIH/3T3 fibroblasts; test: qRT-PCR Hic5 mRNA; type: cell-based, mouse; details: 48 h, TGF-β1 10 ng/mL
Protocol: as §1

[5] = system: Mrtfa mRNA in NIH/3T3 fibroblasts; test: qRT-PCR Mrtfa mRNA; type: cell-based, mouse; details: 48 h, TGF-β1 10 ng/mL
Protocol: as §1

VCAM1–ITGA4 interaction = test: Co-IP of VCAM1 with ITGA4; type: cell-based; details: 48 h, Co-IP with anti-ITGA4
Protocol: as §2, §3

## VMPYISTTPAKPCTSENCGNSWYGGFKSKNENKIYFIN (disulfide 13-18 (inferred)) [AF38Pep]
[1]
  LTBP1 mRNA expression: attenuated
[2]; 96 h
  collagen gel contraction: significantly delayed collagen gel contraction
[2]; 144 h
  collagen gel contraction: maintained a significant difference in contraction
EDA-FN–ITGA4 interaction
  EDA-FN–ITGA4 interaction: specifically inhibited EDA-FN–ITGA4 interactions
[3]; NIH/3T3, 48 h, all concentrations tested (log10 dilution range)
  attenuation of TGF-β1-induced α-SMA mRNA: significantly attenuated gene induction at 48 h in all concentrations tested
[3]; NIH/3T3, 72 h, 10 µg/mL
  attenuation of TGF-β1-induced α-SMA mRNA: only AF38Pep treatment at a concentration of 10 µg/mL was sufficient to significantly attenuate the α-SMA mRNA upregulation
[3]; NIH/3T3, 72 h, 0.1–1 µg/mL
  attenuation of TGF-β1-induced α-SMA mRNA: not able to effectively inhibit the differentiation response over the 72 h duration of treatment
[4]
  HIC5 mRNA expression: attenuated
[5]
  MRTFA mRNA expression: attenuated
VCAM1–ITGA4 interaction
  VCAM1–ITGA4 binding: unaffected by cell treatments and remained at basal levels
